Laboratory results as given in patent US6083973A, “Methods for inhibiting mucin secretion using RAR α selective antagonists” (Syntex (U.S.A.) Inc., priority 1999, dated 2000).

How the values were obtained:
[1] = target: T1, RARα (Homo sapiens, UniProt P10276); experiment: RAR binding, competition with labelled ATRA, α
T1 sequence (P10276 1-462): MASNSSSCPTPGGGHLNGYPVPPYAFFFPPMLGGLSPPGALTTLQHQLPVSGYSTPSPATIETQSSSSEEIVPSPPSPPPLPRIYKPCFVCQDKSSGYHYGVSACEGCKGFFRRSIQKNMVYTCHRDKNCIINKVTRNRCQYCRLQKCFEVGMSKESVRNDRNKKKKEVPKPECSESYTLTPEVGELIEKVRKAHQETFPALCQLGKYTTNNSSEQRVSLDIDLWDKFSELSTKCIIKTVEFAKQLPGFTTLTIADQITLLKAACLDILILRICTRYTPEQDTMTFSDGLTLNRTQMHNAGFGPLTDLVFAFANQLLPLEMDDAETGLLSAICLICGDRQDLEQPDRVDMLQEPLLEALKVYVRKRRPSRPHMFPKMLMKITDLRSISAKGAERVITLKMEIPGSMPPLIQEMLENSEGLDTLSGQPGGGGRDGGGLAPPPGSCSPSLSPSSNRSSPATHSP
Experimental: (§1) The term "IC50 " of a retinoid for a retinoic acid receptor refers to the concentration of the retinoid at which binding by ATRA to that particular receptor is inhibited by 50%. Binding is measured by competition of the retinoid with labelled ATRA.
(§2) The RARα antagonist selectivity of a compound can be determined by routine ligand binding assays known to one of skill in the art such as described in C. Apfel, et al. Proc. Nat. Sci. Acad. (USA), 89:7129-7133 (1992); M. Teng, et al, J. Med. Chem., 40:2445-2451 (1997); and PCT Publication WO 96/30009.

[2] = target: T1, RARα; experiment: Transactivation of RARα relative to ATRA; format: biochemical; conditions: both compounds at 10000 nM, read-out: Transactivation EC50 % MAX, RARα
Experimental: (§3) As used herein, the term "EC50 " of a retinoid for a retinoic acid receptor means the transactivation by the retinoid of the particular retinoic acid receptor under consideration relative to the transactivation of that same receptor by ATRA under identical conditions with both retinoids at the same concentration (1000 nM or 10000 nM depending on the highest concentration tested). Values are expressed as a percentage.
(§4) As used herein, the term "transactivation" refers to the ability of a retinoid to activate the transcription of a gene where the gene transcription is initiated by the binding of a ligand to the particular retinoic acid receptor being tested, i.e., RARα, RARβ, or RARγ. Determining the ability of a compound to transactivate a retinoic acid receptor may be performed by methods known to those of skill in the art. Examples of such methods are found in Bernard, et al. Biochem. Biophys. Res. Commun., 186:977-983 (1992) and C. Apfel, et al. Proc. Nat. Sci. Acad. (USA), 89:7129-7133 (1992).
(§5) EC50 's were determined relative to ATRA, with both compounds at 10000 nM. Values are expressed as a percentage of transactivation relative to ATRA.

[3] = target: T2, RARγ (Homo sapiens, UniProt P13631); experiment: RAR binding, competition with labelled ATRA, γ
T2 sequence (P13631 1-454): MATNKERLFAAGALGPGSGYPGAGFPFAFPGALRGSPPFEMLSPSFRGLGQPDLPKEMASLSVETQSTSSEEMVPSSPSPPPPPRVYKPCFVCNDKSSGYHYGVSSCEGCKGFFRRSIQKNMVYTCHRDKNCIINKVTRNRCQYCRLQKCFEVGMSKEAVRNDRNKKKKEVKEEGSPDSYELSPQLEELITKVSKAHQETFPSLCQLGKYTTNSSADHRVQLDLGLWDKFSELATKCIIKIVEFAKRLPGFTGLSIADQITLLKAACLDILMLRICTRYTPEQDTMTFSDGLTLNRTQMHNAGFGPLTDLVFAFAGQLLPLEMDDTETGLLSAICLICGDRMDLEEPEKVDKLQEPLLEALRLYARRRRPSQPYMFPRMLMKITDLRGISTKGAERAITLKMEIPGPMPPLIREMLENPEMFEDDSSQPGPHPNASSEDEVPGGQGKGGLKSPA
Experimental: as §1, §2

[4] = target: T3, RARβ (Homo sapiens, UniProt P10826); experiment: RAR binding, competition with labelled ATRA, β
T3 sequence (P10826 1-455): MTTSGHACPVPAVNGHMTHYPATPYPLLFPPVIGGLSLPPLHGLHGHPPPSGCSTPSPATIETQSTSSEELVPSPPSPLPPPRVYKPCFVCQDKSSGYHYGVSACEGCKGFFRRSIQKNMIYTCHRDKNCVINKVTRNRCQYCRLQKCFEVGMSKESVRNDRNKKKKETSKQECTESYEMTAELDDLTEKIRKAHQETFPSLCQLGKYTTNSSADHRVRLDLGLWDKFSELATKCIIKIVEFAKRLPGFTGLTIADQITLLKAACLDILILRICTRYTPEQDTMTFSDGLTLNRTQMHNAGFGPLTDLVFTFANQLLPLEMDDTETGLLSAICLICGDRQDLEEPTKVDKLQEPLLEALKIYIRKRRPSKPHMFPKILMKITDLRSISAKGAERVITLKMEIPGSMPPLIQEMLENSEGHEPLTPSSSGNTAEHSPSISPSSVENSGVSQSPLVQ
Experimental: as §1, §2

[5] = target: T2, RARγ; experiment: Transactivation of RARγ relative to ATRA; format: biochemical; conditions: both compounds at 10000 nM, read-out: Transactivation EC50 % MAX, RARγ
Experimental: as §3, §4, §5

[6] = target: T3, RARβ; experiment: Transactivation of RARβ relative to ATRA; format: biochemical; conditions: both compounds at 10000 nM, read-out: Transactivation EC50 % MAX, RARβ
Experimental: as §3, §4, §5

[7] = test system: MUC5AC; experiment: MUC5AC gene transactivation in NHBE cells, RT-PCR; format: cell-based, human; conditions: even at the highest dose, 1×10^-6 M, Example 2
Experimental: (§6) Transactivation of mucin genes in normal primary human bronchial epithelial cells (NHBE) was performed as described by Gray et al. Am. J. Respir. Biol., 14:104-112 (1996). Primary human airway epithelial cells were cultured on porous Transwell membranes (Corning/Costar) in defined media in the absence of all-trans retinoic acid (ATRA) for 7 days. After seven days, fresh media±ATRA or selective retinoid, was added to the basal culture compartment to create an air-liquid interface (ALI). ATRA and/or selective retinoids were used at a concentration or 1×10^-7 M. The selective retinoids used were: Compound X (RARα selective agonist), RXR agonist (SRI 11217) and anti-AP1 retinoid (SRI 11302). After seven additional days of culture the media was harvested for analysis of secreted mucin gene product using specific ELISA as previously described (Gray et al). The cell layer was lysed using a guanidinium-based buffer (TRIZOL/Sigma) for RNA extraction and analysis. Amplification of MUC2 and MUC5AC RNA was performed by standard RT-PCR using appropriate selective primer and mimics pairs (Guzman et al., Am. J. Physiol. 271 (Lung Cell Mol Physiol.15): L1023-L1028 (1996) and PCR products were detected in ethedium bromide stained agarose gels.
(§7) Transactivation of mucin genes in NHBE was performed as described above with the exception that media was supplemented with RAR alpha (RARα), beta (RARβ), or gamma (RARγ)-selective retinoids on days 7 through day 14. The RAR alpha (RARα), beta (RARβ), or gamma (RARγ)-selective retinoids were compounds X, Y and CD-437 respectively.
(§8) Transactivation of mucin genes in NHBE was performed as described above. On days 7 through day 14 cells were cultured with 1×10^-6 M RARα antagonist, Compound Z, alone or in combination with 1×10^-7 M ATRA or RARα selective agonist, Compound X. The effects on mucin gene transactivation and expression were determined by RT-PCR and ELISA as described above. RARα selective antagonist, Compound Z, had no effect on MUC2 or MUC5AC gene expression.

[8] = test system: MUC2; experiment: MUC2 gene transactivation in NHBE cells, RT-PCR; format: cell-based, human; conditions: even at the highest dose, 1×10^-6 M, Example 2
Experimental: as §6, §7, §8

| Structure (SMILES) | IC50 [1] [nM] | Emax at 10 µM [2] [%] | IC50 [3] [nM] | IC50 [4] [nM] | Emax at 10 µM [5] [%] | % transactivation relative to ATRA at 10 µM [6] [%] | Induction of MUC5AC [7] | Induction of MUC2 [8] |
| --- | --- | --- | --- | --- | --- | --- | --- | --- |
| CCCCCCCCc1cc2c(cc1/C(C)=C/C=C/C(C)=C/C(=O)O)C(C)(C)CCCS2(=O)=O | 47 | 11 | 1000 | 4900 | 33 | 35 | – | – |
| CCCCCCCCc1cc2c(cc1/C(C)=C/c1ccc(C(=O)O)cc1)C(C)(C)CCS2(=O)=O | 70 | 16 | 2300 | 1900 | 32 | 15 | – | – |
| CCCCCCCOc1cc2c(cc1/C(C)=C/C=C/C(C)=C/C(=O)O)C(C)(C)CCS2 | 200 | 27 | < 10000 | < 10000 | 36 | 17 | – | – |
| CCCCCCCOc1cc2c(cc1/C(C)=C/C=C/C(C)=C/C(=O)O)C(C)(C)CCCS2(=O)=O | 180 | 12 | 2200 | 6400 | 30 | 20 | – | – |
| CCCCCCCOc1cc2c(cc1/C(C)=C/c1ccc(C(=O)O)cc1)C(C)(C)CCCS2(=O)=O | 190 | 14 | 2500 | 3000 | 18 | 7 | – | – |
| CCCCCCCOc1cc2c(cc1-c1ccc3cc(C(=O)O)ccc3c1)C(C)(C)CCS2(=O)=O | 360 | 8 | 1400 | 2800 | 14 | 17 | – | – |
| CCCCCCCOc1cc2c(cc1/C(C)=C/c1ccc(C(=O)O)cc1)C(C)CCCS2(=O)=O (stereo not drawn) | 530 | 5 | 3000 | 5100 | – | 7 | – | – |
| CCCCCCCOc1cc2c(cc1C#Cc1ccc(C(=O)O)cc1)C(C)(C)CCS2(=O)=O | 240 | 18 | 2900 | 3500 | 20 | 6 | – | – |
| CCCCCCCOc1cc2c(cc1/C(C)=C/C=C/C(C)=C/C(=O)O)C(C)(C)CC[S+]2[O-] (stereo not drawn) | 440 | 13 | 3700 | > 10000 | 11 | 10 | – | – |
| CCCCCCCCc1cc2c(cc1/C(C)=C/c1ccc(C(=O)O)cc1)C(C)(C)CCCS2(=O)=O | 200 | 18 | 1800 | 3300 | 36 | 13 | – | – |
| CCCCCCCOc1cc2c(cc1\C(C)=C/C=C/C(C)=C/C(=O)O)C(C)(C)CCS2(=O)=O | 450 | 24 | > 10000 | > 10000 | 20 | 31 | – | – |
| CCCCCCOc1cc2c(cc1/C(C)=C/C=C/C(C)=C/C(=O)O)C(C)(C)CCCS2(=O)=O | 250 | 20 | 1300 | 2500 | 46 | 32 | – | – |
| CCCCCCCCOc1cc2c(cc1/C(C)=C/c1ccc(C(=O)O)cc1)C(C)(C)CCCS2(=O)=O | 390 | 8 | 2600 | 6900 | 25 | 21 | – | – |
| CCCCCCOc1cc2c(cc1/C(C)=C/c1ccc(C(=O)O)cc1)C(C)(C)CCCS2(=O)=O | 580 | 14 | 2600 | 3800 | 54 | 37 | – | – |
| CCCCCCCOc1cc2c(cc1/C(C)=C/c1ccc(C(=O)O)cc1)C(C)(C)CS2(=O)=O | 160 | 11 | 3400 | 6900 | 24 | 22 | – | – |
| O=C(O)c1ccc2cc(-c3ccc(O)c(C45CC6CC(CC(C6)C4)C5)c3)ccc2c1 [CD-437, 6-[3-(1-adamantyl)-4-hydroxyphenyl]-2-naphthalenecarboxylic acid] | – | – | – | – | – | – | minimal | minimal |
| CCCCCCCOc1cc2c(cc1/C(C)=C/c1ccc(C(=O)O)cc1)C(C)(C)CCS2(=O)=O [drawing 3] | 77 | 16 | 4200 | – | 9 | 3 | – | – |
| CCCCCCCOc1cc2c(cc1/C(C)=C/C=C/C(C)=C/C(=O)O)C(C)(C)CCS2(=O)=O [drawing 4] | 27 | 9 | 2400 | 5100 | 16 | 14 | – | – |
